Usually IC50 stands for the concentration that gives 50% inhibition. Low readings indicate greater potency in that assay, high ones weaker potency in that assay.

From BindingDB's records for doi:10.1016/j.bioorg.2015.06.006 (Hazara University, 2015) come the findings set out here.

Sequence of Alpha-glucosidase MAL12 (P53341 whole entry): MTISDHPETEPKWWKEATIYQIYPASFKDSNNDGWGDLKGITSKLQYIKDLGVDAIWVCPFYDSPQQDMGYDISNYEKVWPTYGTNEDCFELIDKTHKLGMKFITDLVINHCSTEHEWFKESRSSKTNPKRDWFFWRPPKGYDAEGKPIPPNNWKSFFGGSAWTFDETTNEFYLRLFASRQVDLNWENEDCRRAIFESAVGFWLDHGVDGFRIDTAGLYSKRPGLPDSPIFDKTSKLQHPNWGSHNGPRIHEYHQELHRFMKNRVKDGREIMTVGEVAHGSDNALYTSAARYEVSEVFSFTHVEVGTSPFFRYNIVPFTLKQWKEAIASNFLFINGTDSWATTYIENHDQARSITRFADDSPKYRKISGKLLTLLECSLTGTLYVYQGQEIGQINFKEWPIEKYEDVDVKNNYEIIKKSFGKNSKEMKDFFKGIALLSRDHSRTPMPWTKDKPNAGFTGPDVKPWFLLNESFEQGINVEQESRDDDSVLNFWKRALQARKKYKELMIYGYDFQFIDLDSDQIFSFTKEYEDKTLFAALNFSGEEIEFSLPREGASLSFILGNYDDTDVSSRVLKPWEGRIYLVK

The test addresses Alpha-glucosidase MAL12 (Saccharomyces cerevisiae (strain ATCC 204508 / S288c), UniProt P53341). Put plainly: Alpha-glucosidase Assay. Conditions: pH 6.8. The protocol:
Total volume of 100 µL reaction mixture contained 70 µL 50 mM phosphate buffer pH 6.8, 10 µL test compound (0.5 mM in methanol) followed by the addition of 10 µL enzyme solution (0.057 units) in the buffer. The contents were mixed, pre-incubated for 10 min at 37 °C and pre-read at 400 nm. The reaction was initiated by the addition of 10 µL of 0.5 mM substrate (p-nitrophenyl glucopyranoside). After 30 min of incubation at 37 °C, absorbance of p-nitrophenol released was measured. Acarbose was used as positive control.
Regarding `COc1ccc(-c2csc(N/N=C\c3cccc(/C=N/Nc4nc(-c5ccc(OC)cc5)cs4)c3)n2)cc1` [1-((E)-(2-(4-(4-Methoxyphenyl)thiazol-2-yl)hydrazono)-methyl)-3-((Z)-(2-(4-(4-methoxyphenyl)thiazol-2-yl)hydrazono)-methyl)benzene (18)], 55.4 µM corresponded to half-maximal inhibition (IC50).
In turn, `Clc1ccc(-c2csc(N/N=C\c3cccc(/C=N/Nc4nc(-c5ccc(Cl)cc5)cs4)c3)n2)cc1` [1-((E)-(2-(4-(4-chlorophenyl)thiazol-2-yl)hydrazono)methyl)-3-((Z)-(2-(4-(4-chlorophenyl)thiazol-2-yl)hydrazono)methyl)benzene (9)] gave an IC50 of 68.5 µM.
With `Clc1ccc(-c2csc(N/N=C/c3ccc(/C=N/Nc4ncc(-c5ccc(Cl)cc5)s4)cc3)n2)cc1` [5-(4-chlorophenyl)-2-((E)-2-(4-((E)-(2-(4-(4-chlorophenyl)-thiazol-2-yl)hydrazono)methyl)benzylidene)hydrazinyl)thiazole (10)] the figure was 342 µM; with `COc1ccc(-c2csc(N/N=C/c3ccc(/C=N/Nc4ncc(-c5ccc(OC)cc5)s4)cc3)n2)cc1` [5-(4-methoxyphenyl)-2-((E)-2-(4-((E)-(2-(4-(4-methoxyphenyl)thiazol-2-yl)hydrazono)methyl)benzylidene)-hydrazinyl)thiazole (19)], 226 µM.
Turning to `CC(C)(C)c1cc(/C=N/Nc2nc(-c3ccc(Cl)cc3)cs2)cc(C(C)(C)C)c1O` [(E)-2,6-Di-t-butyl-4-((2-(4-(4-Chlorophenyl)thiazole-2-yl)-hydrazono)methyl)-phenol (8)], the IC50 worked out at 18.2 µM.
On to `COc1ccc(-c2csc(N/N=C/c3cc(C(C)(C)C)c(O)c(C(C)(C)C)c3)n2)cc1` [(E)-2,6-Di-tert-butyl-4-((2-(4-(4-Methoxyphenyl)thiazol-2-yl)hydrazono)-methyl)phenol (17)], for which 123 µM corresponded to half-maximal inhibition (IC50).
For `C/C(=N\Nc1nc(-c2ccc(Cl)cc2)cs1)c1ccc([N+](=O)[O-])cc1Br` [(E)-2-(2-(1-(2-Bromo-4-nitrophenyl)ethylidene)hydrazinyl)-4-(4-chlorophenyl)thiazole (2)] the value was 43.3 µM.
`Clc1ccc(-c2csc(N/N=C/c3ccc(OCc4ccccc4)cc3)n2)cc1` [(E)-2-(2-(4-(Benzyloxy)benzylidene)hydrazinyl)-4-(4-chlorophenyl)thiazole (7)] returned an IC50 of 36.8 µM.
With `COc1ccc(-c2csc(N/N=C/c3ccc(OCc4ccccc4)cc3)n2)cc1` [(E)-2-(2-(4-(Benzyloxy)benzylidene)hydrazinyl)-4-(4-methoxyphenyl)thiazole (16)] the figure was 99.2 µM; with `COc1ccc(-c2csc(N/N=C/c3c4ccccc4cc4ccccc34)n2)cc1` [(E)-2-(2-(Anthracen-9-ylmethylene)hydrazinyl)-4-(4-methoxyphenyl)thiazole (13)], 192 µM; with `COc1ccc(-c2csc(N/N=C/c3ccc(OC)c(O)c3)n2)cc1` [(E)-2-Methoxy-5-((2-(4-(4-methoxyphenyl)thiazol-2-yl)-hydrazono)methyl)-phenol (20)], 176 µM.
For `C/C(=N\Nc1nc(-c2ccc(Cl)cc2)cs1)c1ccc(N2CCCCC2)cc1` [(E)-4-(4-Chlorophenyl)-2-(2-(1-(4-(piperidin-1-yl)phenyl)-ethylidene)hydrazinyl)thiazole (4)] the value was 388 µM; for `O=[N+]([O-])c1ccccc1/C=N/Nc1nc(-c2ccc(Cl)cc2)cs1` [(E)-4-(4-Chlorophenyl)-2-(2-(2-nitrobenzylidene)hydrazinyl)-thiazole (3)], 239 µM; for `O=[N+]([O-])c1cccc(/C=N/Nc2nc(-c3ccc(Cl)cc3)cs2)c1` [(E)-4-(4-Chlorophenyl)-2-(2-(3-nitrobenzylidene)hydrazinyl)-thiazole (1)], 220 µM.
With `Clc1ccc(-c2csc(N/N=C/c3ccc4ccccc4c3)n2)cc1` [(E)-4-(4-Chlorophenyl)-2-(2-(naphthalene-2-yl-methylene)hydrazinyl)thiazole (6)], the IC50 stood at 175 µM.
For `COc1ccc(-c2csc(N/N=C(\C)c3cccc([N+](=O)[O-])c3)n2)cc1` [(E)-4-(4-Methoxyphenyl)-2-(2-(1-(3-nitrophenyl)-ethylidene)hydrazinyl)thiazole (12)] the value was 424 µM; for `COc1ccc(-c2csc(N/N=C/c3ccc4ccccc4c3)n2)cc1` [(E)-4-(4-Methoxyphenyl)-2-(2-(naphthalen-2-yl-methylene)-hydrazinyl)thiazole (15)], 194 µM.
For `CN(C)c1ccc(/C=N/Nc2nc(-c3ccc(Cl)cc3)cs2)cc1` [(E)-4-((2-(4-(4-Chlorophenyl)thiazol-2-yl)hydrazono)methyl)-N,N-dimethyl-aniline (5)] the value was 205 µM; for `COc1ccc(-c2csc(N/N=C/c3ccc(N(C)C)cc3)n2)cc1` [(E)-4-((2-(4-(4-Methoxyphenyl)thiazol-2-yl)hydrazono)-methyl)-N,N-dimethylaniline (14)], 146 µM.
With `COc1ccc(-c2csc(N/N=C/c3ccc(O)c(O)c3)n2)cc1` [(E)-4-((2-(4-(4-Methoxyphenyl)thiazol-2-yl)hydrazono)-methyl)benzene-1,2-diol (21)] the figure was 46.4 µM; with `COc1ccc(/C=N/Nc2nc(-c3ccc(Cl)cc3)cs2)cc1O` [(E)-5-((2-(4-(4-Chlorophenyl)thiazole-2-yl)hydrazono)-methyl)-2-methoxy-phenol (11)], 176 µM.
